Results from ChEMBL document CHEMBL1158778, “Paecilosetin, a new bioactive fungal metabolite from a New Zealand isolate of Paecilomyces farinosus” (J Nat Prod, 2005).
≈ marks a conversion by molar mass, not a printed value.

Experiments:
[1] = system: P388; assay: Cytotoxicity against mouse P388 cells by MTT assay; format: functional, cell-based
[2] = system: Trichophyton mentagrophytes; assay: Antimicrobial activity against Trichophyton mentagrophytes at 40 ug/disk by agar diffusion assay; format: functional; details: read-out: IZ
[3] = system: Bacillus subtilis; assay: Antimicrobial activity against Bacillus subtilis at 5 ug/disk by agar diffusion assay; format: functional; details: read-out: IZ
[4] = system: Amorphotheca resinae; assay: Antimicrobial activity against Cladosporium resinae at 40 ug/disk by agar diffusion assay; format: functional; details: read-out: IZ

Row | SMILES | IC50 [1] [µg/mL] | zone of inhibition at 40 µg/disc [2] [mm] | zone of inhibition at 5 µg/disc [3] [mm] | zone of inhibition at 40 µg/disc [4] [mm]
1 | CCC(C)/C=C(C)/C=C/C=C/C=C/C(=O)c1c(O)c(-c2ccc(O)cc2)cn(O)c1=O (stereo not given) [FARINOSONE B] | 1.1 (≈ 2.61 µM) |  |  | 
2 | C/C=C/[C@@H]1C=C[C@@H]2C[C@H](C)CC[C@H]2[C@]1(C)/C(O)=C1\C(=O)N[C@@H](C(C)O)C1=O (stereo not given in full) [PAECILOSETIN] | 3.2 (≈ 8.57 µM) | 3 | 3 | 1
